Paper PMC7279002, “Novel 3′-Substituted-1′,2′,4′-Oxadiazole Derivatives of 18βH-Glycyrrhetinic Acid and Their O-Acylated Amidoximes: Synthesis and Evaluation of Antitumor and Anti-Inflammatory Potential In Vitro and In Vivo” (International Journal of Molecular Sciences, 2020)

How the values were obtained:
Assay in all cases: MTT cytotoxicity assay, 48 h
Assay type in all cases: cell-based
[1] = system: human cervical carcinoma HeLa
In short: (§1)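 Cells were seeded at 10^4 per well, grown 24 h, then exposed to derivatives (0.5–50 µM, DMSO vehicle) for 48 h at 37 °C, 5% CO2 in DMEM/10% FBS. Viability was read by MTT (0.5 mg/mL final, 2 h; A570/620). IC50 was the concentration reducing A570 to 50% of control, from dose–response curves.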

[2] = system: human cervical carcinoma KB-3-1
In short: as §1

[3] = system: human duodenal carcinoma HuTu-80
In short: as §1

[4] = system: human lung adenocarcinoma A549; details: Homo sapiens, A549; MTT, 48 h
In short: as §1

[5] = system: murine melanoma B16
In short: as §1

[6] = system: nontransformed human fibroblasts hFF3; details: Homo sapiens, HFF-3, read-out: IC50, µM Fibroblast hFF3
In short: as §1

## CC1(C)C2CC[C@]3(C)C(C(=O)C=C4[C@@H]5C[C@@](C)(c6nc(-c7ccccn7)no6)CC[C@]5(C)CC[C@]43C)[C@@]2(C)CC[C@@H]1O (stereo partly drawn) [Compound 5f, 30-nor-3β-hydroxy-11-oxo-20-(3′-(pyridin-2′′-yl)-1′,2′,4′-oxadiazol-5′-yl)-18βH-olean-12-en]
[1]; Homo sapiens, HeLa, MTT, 48 h, read-out: IC50, µM Cervix HeLa
  IC50: 3.6 ± 0.5 µM
[1]; IC50 in hFF3 / IC50 in HeLa
  Selectivity index: HeLa: > 13.9
[2]; Homo sapiens, KB 3-1, MTT, 48 h, read-out: IC50, µM Cervix KB-3-1
  IC50: 4.7 ± 0.1 µM
[2]; IC50 in hFF3 / IC50 in KB-3-1
  Selectivity index: KB-3-1: > 10.6
[3]; Homo sapiens, HuTu80, MTT, 48 h, read-out: IC50, µM Duodenum HuTu-80
  IC50: 3.8 ± 0.3 µM
[3]; IC50 in hFF3 / IC50 in HuTu-80
  Selectivity index: HuTu-80: > 13.2
[4]
  IC50: > 50 µM
[5]; IC50 in hFF3 / IC50 in B16
  Selectivity index: B16: > 5.3
[5]; Mus musculus, MTT, 48 h
  IC50: 9.4 ± 0.4 µM
[6]
  IC50: > 50 µM
